Entries after “also recorded” stand apart in the source; their conditions may differ.
Experiments:
human INPP5K = biological target: T1, human INPP5K (Homo sapiens, UniProt Q9BT40); assay: Inorganic phosphate detection assay for phosphatase inhibition; assay type: biochemical
T1 construct: full-length human INPP5K (amino acids 1–448, UniProt ID: Q9BT40); FLAG (N); made in house; host or cells: Expi293 cells (pcDNA3.4, transient)
T1 sequence (Q9BT40 1-448): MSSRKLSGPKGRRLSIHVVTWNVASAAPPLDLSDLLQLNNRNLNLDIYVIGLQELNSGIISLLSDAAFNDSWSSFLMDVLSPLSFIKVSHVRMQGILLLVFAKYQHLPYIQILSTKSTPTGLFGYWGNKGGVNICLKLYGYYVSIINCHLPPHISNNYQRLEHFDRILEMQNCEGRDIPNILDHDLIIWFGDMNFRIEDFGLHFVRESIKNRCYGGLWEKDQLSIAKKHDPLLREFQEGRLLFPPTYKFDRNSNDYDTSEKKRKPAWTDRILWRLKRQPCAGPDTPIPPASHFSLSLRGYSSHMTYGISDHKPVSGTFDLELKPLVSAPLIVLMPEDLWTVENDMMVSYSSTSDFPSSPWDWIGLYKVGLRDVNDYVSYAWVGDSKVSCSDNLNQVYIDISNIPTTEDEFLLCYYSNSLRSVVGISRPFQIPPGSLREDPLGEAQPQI
Description: (§1) The protein purification is described in detail elsewhere. Briefly, full-length human INPP5K (amino acids 1–448, UniProt ID: Q9BT40), rat INPP5K (aa 1–446, UniProt ID: Q9R0B6), mouse INPP5K (aa 1–468, UniProt ID: Q8C5L6), hamster INPP5K (aa 1–453, UniProt ID: G3HTF6), guinea pig INPP5K (aa 1–473, UniProt ID: H0V8T7) containing an N-terminal FLAG-tag, full-length human SHIP2 (aa 1–1 258) containing a C-terminal FLAG-tag, and full-length human PIPP (amino acids 1–1 006) containing an N-terminal His8-tag were all cloned into the pcDNA3.4 expression vector and transiently expressed in Expi293 cells (Thermo Fisher Scientific). The PH domain of human TAPP1 (amino acids 180–404) containing an N-terminal GST-tag was expressed in a pGEX6P1 expression vector (GE Healthcare) in E. coli strain BL21 ((Merck KGaA, Darmstadt, Germany)), following IPTG induction at 37 °C for 5 h. All the FLAG-tagged INPP5Ks and hSHIP2 were purified using affinity columns containing DDDDK-tagged protein purification gel (MBL, Medical & Biological Laboratories Co., Ltd., Tokyo, Japan), followed by size-exclusion chromatography with Superdex 200 columns (GE Healthcare). His8-tagged hPIPP was purified using Ni–NTA Superflow (Qiagen) and Superdex 200 columns. The GST-tagged hTAPP1 domain was purified using a Glutathione Sepharose 4B (GE Healthcare) and Superdex 200 columns. The purity of the protein obtained was evaluated using SDS-PAGE.
(§2) The release of inorganic phosphate was measured using a PiPer Phosphate Assay Kit (Thermo Fisher Scientific), according to the manufacturer’s instructions, but with some modifications. Enzyme reactions were performed in a final volume of 10 µL per well in a 384-well nonbinding black plates (Greiner Bio-One International, GmbH, Kremsmünster, Austria). The reaction mixtures containing 20 µM diC8-PI(3,4,5)P₃ and each enzyme (human INPP5K, mouse INPP5K, rat INPP5K, hamster INPP5K, guinea pig INPP5K, human SHIP2, or human PIPP) in reaction buffer (50 mM Tris–HCl pH 7.0, 150 mM NaCl, 7.5 mM MgCl₂, 0.03% Igepal CA-630, 0.03% gelatin), with or without various concentrations of inhibitor, were incubated for 20 min at room temperature. The reactions were then stopped and detection reactions were initiated by adding 5 µL of detection mix 1 (60 mM EDTA, 12 U/mL maltose phosphorylase, and 0.6 mM maltose in 100 mM Tris–HCl pH 8.0). After incubation for 60 min at room temperature, 5 µL of detection mix 2 (8 U/mL glucose oxidase, 0.8 U/mL HRP, and 100 µM Amplex Red in 100 mM Tris–HCl pH 8.0) was added, and the mixture was incubated for a further 30 min at room temperature in the dark. The fluorescence generated was measured using an Envision plate reader at 531/590 nm (excitation/emission), and the percentage inhibition was calculated as described above.

human PIPP = biological target: T2, human PIPP (Homo sapiens, UniProt Q15735); assay: as above; assay type: biochemical; settings: 20 µM diC8-PI(3,4,5)P3, 20 min
T2 construct: full-length human PIPP (amino acids 1–1 006) containing an N-terminal His8-tag; His8 (N); made in house; host or cells: Expi293 cells (pcDNA3.4, transient)
T2 sequence (Q15735 1-1006): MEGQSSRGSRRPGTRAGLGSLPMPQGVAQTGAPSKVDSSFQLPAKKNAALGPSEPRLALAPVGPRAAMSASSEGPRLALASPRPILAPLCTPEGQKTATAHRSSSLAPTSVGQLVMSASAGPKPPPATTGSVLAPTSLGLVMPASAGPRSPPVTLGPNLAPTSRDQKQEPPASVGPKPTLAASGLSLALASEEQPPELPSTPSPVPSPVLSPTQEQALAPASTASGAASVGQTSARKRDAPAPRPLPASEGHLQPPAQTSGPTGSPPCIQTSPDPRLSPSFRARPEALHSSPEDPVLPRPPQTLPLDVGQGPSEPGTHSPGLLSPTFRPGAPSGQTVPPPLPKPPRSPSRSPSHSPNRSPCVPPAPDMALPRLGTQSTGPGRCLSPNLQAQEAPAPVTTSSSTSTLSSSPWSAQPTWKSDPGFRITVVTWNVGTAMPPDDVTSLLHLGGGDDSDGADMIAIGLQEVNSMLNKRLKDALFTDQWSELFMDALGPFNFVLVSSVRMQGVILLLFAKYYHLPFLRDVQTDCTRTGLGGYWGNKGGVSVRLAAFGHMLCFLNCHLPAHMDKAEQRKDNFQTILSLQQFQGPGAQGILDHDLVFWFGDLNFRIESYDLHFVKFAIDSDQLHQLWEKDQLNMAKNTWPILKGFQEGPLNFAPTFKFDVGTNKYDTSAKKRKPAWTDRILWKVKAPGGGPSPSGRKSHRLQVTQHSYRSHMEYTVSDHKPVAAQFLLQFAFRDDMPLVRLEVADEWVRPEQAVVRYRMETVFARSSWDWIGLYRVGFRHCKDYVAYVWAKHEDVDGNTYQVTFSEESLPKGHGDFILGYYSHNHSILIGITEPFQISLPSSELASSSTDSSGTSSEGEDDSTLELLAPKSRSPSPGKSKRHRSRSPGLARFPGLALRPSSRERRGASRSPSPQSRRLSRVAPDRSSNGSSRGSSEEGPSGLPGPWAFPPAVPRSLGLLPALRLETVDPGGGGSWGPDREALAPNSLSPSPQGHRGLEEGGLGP
Description: as §1, §2

CC(C)c1sc(NC(=O)c2ccccc2)c(C(=O)O)c1-c1ccccc1 [CPD-1]
IC50 (human INPP5K; inorganic phosphate detection assay, 20 µM diC8-PI(3,4,5)P3, 20 min): 2900 nM
mode of inhibition of human INPP5K (human INPP5K; result in words): noncompetitive inhibition; also recorded: noncompetitive inhibitor
IC50 (human PIPP): > 100 µM

From PMC13047053, “Crystal structure of human INPP5K with an allosteric inhibitor reveals the structural basis for species specific potency” (Scientific Reports, 2026)
